For the data set the following is noted: Liquid, Transpiration method.

This is an account of results in the NIST ThermoML archive (doi:10.1021/acs.jced.6b00357).

“And” between values parts separate entries of the source, which are not always exact repeats. Equal entries are not always repeated. ± gives the expanded uncertainty stated by the source.

For `O` [water], the “vapor or sublimation pressure” value is 2.319 ± 0.094 kPa and 2.32 ± 0.094 kPa and 2.315 ± 0.094 kPa (293.15 K); 3.178 ± 0.13 kPa (298.15 K).
